# Measurements published in patent US4906661A, “Esters of aryloxypropanolamine derivatives” (E. I. Du Pont de Nemours and Company, priority 1989, dated 1990).
# Key:
# [1] = target: β2 receptors, guinea pig trachea (Cavia porcellus, UniProt Q8K4Z4); assay: cell-based; conditions: Table IV; mean, n ≥ 2, range ≤ ± 0.2 units; read-out: pA2 Trachea (converted)
# Protocol: Each tissue was suspended between a fixed glass rod and a Statham Universal Transducer connected to a Beckman recorder. Atria were allowed to beat spontaneously under a loading tension of approximately 0.5 gm. Intrinsic depressant or stimulant activity was determined for each compound by progressively increasing concentrations in the tissue baths at 60-minute intervals. Tissues were not washed between increments. […] Changes in rate in response to isoproterenol, a standard β-receptor agonist, were measured in the absence and presence of test compounds. Spiral strips of guinea pig trachea were suspended under 5 gm resting tension and incubated with phentolamine, tropolone and cocaine. Active tension was generated by addition of carbachol (3.0×10^-7 M) and decreases in tension in response to isoproterenol were quantitated. Cumulative concentration-response curves were produced with isoproterenol both before and after 60-minute incubation of test compounds with atria and trachea. […] The blocking potency of test compounds was estimated by computing pA2 values (-log KB) by the method of Furchgott, the Pharmacological Differentiation of Adrenergic Receptors, Ann. […] A ratio greater than one indicates cardioselectivity. Test drugs were dissolved in distilled water and added to the bath (30 ml) in a volume of 10 or 100 μl.
# [2] = Ocular toxicity noted in corneal anesthesia test; type: in vivo; conditions: Table IV footnote e
# [3] = target: β1 receptors, guinea pig right atria (Cavia porcellus, UniProt H0W3H1); assay: cell-based; conditions: Table IV; mean, n ≥ 2, range ≤ ± 0.2 units; read-out: pA2 Atria (converted)
# β1 receptors, guinea pig right atria, sequence (H0W3H1 1-470): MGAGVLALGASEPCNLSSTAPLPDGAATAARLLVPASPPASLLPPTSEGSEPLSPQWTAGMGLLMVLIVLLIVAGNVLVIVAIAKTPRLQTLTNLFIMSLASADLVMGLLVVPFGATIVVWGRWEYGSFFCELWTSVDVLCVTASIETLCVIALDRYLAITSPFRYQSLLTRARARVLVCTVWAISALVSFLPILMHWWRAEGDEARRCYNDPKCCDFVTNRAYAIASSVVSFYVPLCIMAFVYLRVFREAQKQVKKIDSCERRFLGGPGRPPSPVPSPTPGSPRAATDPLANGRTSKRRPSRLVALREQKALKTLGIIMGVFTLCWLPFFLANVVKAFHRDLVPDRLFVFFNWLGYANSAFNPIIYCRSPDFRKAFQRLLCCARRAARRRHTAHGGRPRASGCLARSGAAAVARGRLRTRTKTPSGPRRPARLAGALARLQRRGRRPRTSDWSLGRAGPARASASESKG
# Protocol: Each tissue was suspended between a fixed glass rod and a Statham Universal Transducer connected to a Beckman recorder. Atria were allowed to beat spontaneously under a loading tension of approximately 0.5 gm. Intrinsic depressant or stimulant activity was determined for each compound by progressively increasing concentrations in the tissue baths at 60-minute intervals. Tissues were not washed between increments. The maximum concentration showing little or no cardiodepressant activity was chosen for blockade experiments. Changes in rate in response to isoproterenol, a standard β-receptor agonist, were measured in the absence and presence of test compounds. Spiral strips of guinea pig trachea were suspended under 5 gm resting tension and incubated with phentolamine, tropolone and cocaine. Active tension was generated by addition of carbachol (3.0×10^-7 M) and decreases in tension in response to isoproterenol were quantitated. Cumulative concentration-response curves were produced with isoproterenol both before and after 60-minute incubation of test compounds with atria and trachea. […] The blocking potency of test compounds was estimated by computing pA2 values (-log KB) by the method of Furchgott, the Pharmacological Differentiation of Adrenergic Receptors, Ann. […] The degree of cardioselectivity was estimated from the ratio, KB trachea/KB atria (10^(pA2 atria-pA2 trachea)). A ratio greater than one indicates cardioselectivity. Test drugs were dissolved in distilled water and added to the bath (30 ml) in a volume of 10 or 100 μl.
# β2 receptors, guinea pig trachea, sequence (Q8K4Z4 whole entry): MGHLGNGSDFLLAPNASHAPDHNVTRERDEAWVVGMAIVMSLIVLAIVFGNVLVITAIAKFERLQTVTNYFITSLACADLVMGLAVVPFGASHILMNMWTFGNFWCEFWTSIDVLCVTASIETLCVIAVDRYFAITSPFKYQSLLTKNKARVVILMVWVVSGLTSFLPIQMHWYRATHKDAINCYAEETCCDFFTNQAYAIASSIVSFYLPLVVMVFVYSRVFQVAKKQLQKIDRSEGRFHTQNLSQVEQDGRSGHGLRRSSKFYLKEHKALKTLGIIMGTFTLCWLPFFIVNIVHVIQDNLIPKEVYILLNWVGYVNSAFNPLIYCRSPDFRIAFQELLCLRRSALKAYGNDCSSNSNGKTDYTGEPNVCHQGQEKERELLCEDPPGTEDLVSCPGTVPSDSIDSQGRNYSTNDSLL
smiles,measurement,setting,value
CCOC(=O)CCc1ccccc1OCC(O)CNCCNS(=O)(=O)c1ccc(C)cc1 (stereo not drawn) [No. 8 (Table IV)],Kb,[1],126 nM
same,ocular toxicity,[2],extreme ocular toxicity
same,Kb,[3],794 nM
